What was measured:
[1] = test system: green peach aphid (Myzus persicae); test: Insecticidal test for green peach aphid in foliar spray assay; format: in vivo; set-up: key to GPA 50: % control at 50 ppm against green peach aphid in foliar spray tests / GPA 200: % control at 200 ppm against green peach aphid in foliar spray tests: A: 90-100; B: 80-89; C: 70-79; D: 60-69; E: 50-59; F: Less than 50; G: Inactive; H: Not tested; conditions: foliar spray on cabbage seedlings, 3 days, Corrected % Control (Abbott); for pest or weed control at 200 ppm / pest or weed control at 50 ppm: Myzus persicae, 72 h; for pest or weed control at 200 ppm: read-out: GPA 200: % control at 200 ppm against green peach aphid in foliar spray tests; for pest or weed control at 50 ppm: read-out: GPA 50: % control at 50 ppm against green peach aphid in foliar spray tests
Procedure: The compounds identified in the foregoing examples were tested against cotton aphid and green peach aphid using procedures described hereinafter. Squash with fully expanded cotyledon leaves were trimmed to one cotyledon per plant and infested with cotton aphid (wingless adult and nymph) 1 day prior to chemical application. Each plant was examined before chemical application to ensure proper infestation (ca. 30-70 aphids per plant). Compounds (2 mg) were dissolved in 2 ml of acetone:methanol (1:1) solvent, forming stock solutions of 1000 ppm. The stock solutions were diluted 5× with 0.025% Tween 20 in H2O to obtain a solution at 200 ppm. Lower concentrations (50, 12.5 and 3.13 ppm) were prepared by making sequential 4× dilutions from the 200 ppm solution with a diluent consisting 80 parts of 0.025% Tween 20 in H2O and 20 parts of acetone:methanol (1:1). A hand-held Devilbiss sprayer was used to apply the spray solutions until runoff to both sides of the squash cotyledon leaves. Four plants (4 replications) were used for each concentration of each compound. Reference plants (solvent check) were sprayed with the diluent only. Treated plants were held in a holding room for 3 days at approximately 23° C. and 40% RH before the number of live aphids on each plant was recorded. Insecticidal activity was measured by Corrected % Control using Abbott's correction formula and presented in Table 1: Corrected % Control=100*(X−Y)/X • where X=No. of live aphids on solvent check plants • Y=No. of live aphids on treated plants Insecticidal Test for Green Peach Aphid (Myzus Persicae) in Foliar Spray Assay Cabbage seedlings grown in 3-inch pots, with 2-3 small (3-5 cm) true leaves, were used as test substrate. The seedlings were infested with 20-50 green peach aphids (wingless adult and nymph) 2-3 days prior to chemical application. Four seedlings were used for each treatment. Compounds (2 mg) were dissolved in 2 ml of acetone:methanol (1:1) solvent, forming stock solutions of 1000 ppm. The stock solutions were diluted 5× with 0.025% Tween 20 in H2O to obtain a solution at 200 ppm. Lower concentrations (50, 12.5 and 3.13 ppm) were prepared by making sequential 4× dilutions from the 200 ppm solution with a diluent consisting 80 parts of 0.025% Tween 20 in H2O and 20 parts of acetone: methanol (1:1). A hand-held Devilbiss sprayer was used for spraying a solution to both sides of cabbage leaves until runoff. Reference plants (solvent check) were sprayed with the diluent only. Treated plants were held in a holding room for three days at approximately 23° C. and 40% RH prior to grading. Evaluation was conducted by counting the number of live aphids per plant under a microscope. Insecticidal activity was measured by using Abbott's correction formula: Corrected % Control=100*(X−Y)/X • where X=No. of live aphids on solvent check plants • Y=No. of live aphids on treated plants The Corrected % Control values from assays are given in Table 1.

[2] = test system: cotton aphid (Aphis gossypii); test: Insecticidal test for cotton aphid in foliar spray assay; format: in vivo; set-up: key to CA 50: % control at 50 ppm against cotton aphid in foliar spray tests: A: 90-100; B: 80-89; C: 70-79; D: 60-69; E: 50-59; F: Less than 50; G: Inactive; H: Not tested; conditions: foliar spray on squash cotyledons, 3 days, Corrected % Control (Abbott); for pest or weed control at 200 ppm / pest or weed control at 50 ppm: Aphis gossypii, 72 h; for pest or weed control at 200 ppm: read-out: CA 200: % control at 200 ppm against cotton aphid in foliar spray tests; for pest or weed control at 50 ppm: read-out: CA 50: % control at 50 ppm against cotton aphid in foliar spray tests
Procedure: The compounds identified in the foregoing examples were tested against cotton aphid and green peach aphid using procedures described hereinafter. Insecticidal Test for Cotton Aphid (Aphis Gossypii) in Foliar Spray Assay Squash with fully expanded cotyledon leaves were trimmed to one cotyledon per plant and infested with cotton aphid (wingless adult and nymph) 1 day prior to chemical application. Each plant was examined before chemical application to ensure proper infestation (ca. 30-70 aphids per plant). Compounds (2 mg) were dissolved in 2 ml of acetone:methanol (1:1) solvent, forming stock solutions of 1000 ppm. The stock solutions were diluted 5× with 0.025% Tween 20 in H2O to obtain a solution at 200 ppm. Lower concentrations (50, 12.5 and 3.13 ppm) were prepared by making sequential 4× dilutions from the 200 ppm solution with a diluent consisting 80 parts of 0.025% Tween 20 in H2O and 20 parts of acetone:methanol (1:1). A hand-held Devilbiss sprayer was used to apply the spray solutions until runoff to both sides of the squash cotyledon leaves. Four plants (4 replications) were used for each concentration of each compound. Reference plants (solvent check) were sprayed with the diluent only. Treated plants were held in a holding room for 3 days at approximately 23° C. and 40% RH before the number of live aphids on each plant was recorded. Insecticidal activity was measured by Corrected % Control using Abbott's correction formula and presented in Table 1: Corrected % Control=100*(X−Y)/X • where X=No. of live aphids on solvent check plants • Y=No. of live aphids on treated plants Insecticidal Test for Green Peach Aphid (Myzus Persicae) in Foliar Spray Assay

CS(=NC#N)[C@@H]1CCC[C@@H]1c1ccc(Cl)nc1 (relative stereo) [Compound 9, cis-[2-(6-chloropyridin-3-yl)cyclopentyl](methyl)-λ^4-sulfanylidenecyanamide]
GPA 50: % control at 50 ppm against green peach aphid in foliar spray tests [1]: G | pest or weed control at 200 ppm [1]: 60 to 69% | CA 50: % control at 50 ppm against cotton aphid in foliar spray tests ([2]; 50 ppm): G | pest or weed control at 200 ppm [2]: 60 to 69%

C/S(Cc1ccc(C(F)(F)F)nc1)=N\C#N (stereo not drawn) [Compound 1]
GPA 50: % control at 50 ppm against green peach aphid in foliar spray tests [1]: G | GPA 200: % control at 200 ppm against green peach aphid in foliar spray tests [1]: G | pest or weed control at 50 ppm ([2]; 50 ppm): 60 to 69% | pest or weed control at 200 ppm [2]: 90 to 100%

CC(c1ccc(C(F)(F)Cl)nc1)/S(C)=N/C#N (stereo not drawn) [Compound 2, (1-{6-[chloro(difluoro)methyl]pyridin-3-yl}ethyl)(methyl)-λ^4-sulfanylidenecyanamide]
pest or weed control at 50 ppm [1]: 90 to 100% | pest or weed control at 200 ppm [1]: 90 to 100% | pest or weed control at 50 ppm ([2]; 50 ppm): 90 to 100% | pest or weed control at 200 ppm [2]: 90 to 100%

CC(c1ccc(C(Cl)(Cl)Cl)nc1)/S(C)=N/C#N (stereo not drawn) [Compound 3, {1-[6-(trichloromethyl)pyridin-3-yl]ethyl}(methyl)-λ^4-sulfanylidenecyanamide]
pest or weed control at 50 ppm [1]: 90 to 100% | pest or weed control at 200 ppm [1]: 90 to 100% | pest or weed control at 50 ppm ([2]; 50 ppm): 90 to 100% | pest or weed control at 200 ppm [2]: 90 to 100%

CC(c1cnc(Cl)nc1)/S(C)=N/C#N (stereo not drawn) [Compound 4, (1E)-[1-(2-chloropyrimidin-5-yl)ethyl](methyl)-λ^4-sulfanylidenecyanamide]
GPA 50: % control at 50 ppm against green peach aphid in foliar spray tests [1]: G | pest or weed control at 200 ppm [1]: < 50% | pest or weed control at 50 ppm ([2]; 50 ppm): 70 to 79% | pest or weed control at 200 ppm [2]: 90 to 100%

C/S(Cc1cnc(C(F)(F)F)s1)=N\C#N (stereo not drawn) [Compound 5, (1E)-methyl {[2-(trifluoromethyl)-1,3-thiazol-5-yl]methyl}-λ^4-sulfanylidenecyanamide]
GPA 50: % control at 50 ppm against green peach aphid in foliar spray tests [1]: G | GPA 200: % control at 200 ppm against green peach aphid in foliar spray tests [1]: G | pest or weed control at 50 ppm ([2]; 50 ppm): 50 to 59% | pest or weed control at 200 ppm [2]: 90 to 100%

N#C/N=S1/CCC(c2ccc(C(F)(F)F)nc2)C1 (stereo not drawn) [Compound 6, 3-[6-(trifluoromethyl)pyridin-3-yl]tetrahydro-1H-1λ^4-thien-1-ylidenecyanamide]
pest or weed control at 50 ppm [1]: 50 to 59% | pest or weed control at 200 ppm [1]: 70 to 79% | pest or weed control at 50 ppm ([2]; 50 ppm): 90 to 100% | pest or weed control at 200 ppm [2]: 90 to 100%

C/S(Cc1cnc(Cl)c(F)c1)=N\C#N (stereo not drawn) [Compound 7, [(5-fluoro-6-chloropyridin-3-yl)methyl](methyl)-λ^4-sulfanylidenecyanamide]
pest or weed control at 50 ppm [1]: 60 to 69% | pest or weed control at 200 ppm [1]: 70 to 79% | pest or weed control at 50 ppm ([2]; 50 ppm): 90 to 100% | pest or weed control at 200 ppm [2]: 90 to 100%

C/S(Cc1ccc(C(C)(F)F)nc1)=N\C#N (stereo not drawn) [Compound 8]
pest or weed control at 50 ppm [1]: 60 to 69% | pest or weed control at 200 ppm [1]: 90 to 100% | pest or weed control at 50 ppm ([2]; 50 ppm): 90 to 100% | pest or weed control at 200 ppm [2]: 90 to 100%
